# Results taken from paper PMC8689140 (Frontiers in Pharmacology, 2021).
# Key:
# [1] = Metabolite identification in dog plasma after oral dose; type: in vivo; details: pooled dog plasma after single oral dose of (+)-13e at 3 μmol/kg
# Protocol: (§1) Male beagle dogs were randomly divided into four groups. […] The dogs were fasted for 12 h before treatment and 4 h after treatment, but they were granted free access to water. Blood was collected from the vein before administration and 0.083 (only for injection groups), 0.25, 0.5, 1, 2, 3, 4, 6, 8, 12 and 24 h, and placed it in heparinized tubes, and centrifuged it at 8,000 rpm for 10 min at 4°C to separate the plasma, which we stored at −20 °C until analysis. The plasma samples were pretreated by protein precipitation with acetonitrile and quantitated by the validated LC-MS/MS (Shimadzu Exion-Triple Quad 4500) method.
# Then, four volumes of acetonitrile (containing 0.1% formic acid) were added into the pooled plasma samples to precipitate the proteins. After vortex-mixing and centrifugation, the supernatants were dried under a nitrogen stream. Then, the residues were resuspended in 100 μl of acetonitrile/water (1:1, v/v) with 0.1% formic acid. After centrifugation, the supernatants were analyzed by UPLC–UV-HRMS for metabolite identification.
# The analysis was performed on Acquity UPLC system coupled with a diode array detector (Waters Corporation, United States) and Q Exactive™ Orbitrap HRMS (Thermo Electron Corporation, United States). […] The mobile phase was composed water containing 0.1% formic acid (A) and acetonitrile containing 0.1% formic acid (B). The flow rate was 0.40 ml/min. The elution conditions were the following linear gradient for metabolite identify in HLMs: 0–1 min: 95% A, 1–2 min: 80% A, 2–5 min: 80% A, 5–8 min: 70% A, 8–12 min: 30% A, 12–15 min: 5% A, 15–16 min: 95% A, and 16–18 min: 95% A. The elution conditions were the following for metabolite identify in dog plasma: 0–1 min: 95% A, 1–30 min: 70% A, 30–32 min: 30% A, 32–33 min: 5% A, 33–35 min: 95% A, and 35–40 min: 95% A.
# HRMS were operated at positive ion mode using a heating electrospray ionization source (HESI). The optimized operating parameters were set as follows: sheath gas (nitrogen) flow rate of 35 psi, aux gas (nitrogen) flow rate of 10 psi, HESI and capillary temperature of 350°C, and spray voltage of 3.5 kV. The metabolites were detected by full MS/dd-MS^2 analysis from m/z 100 to m/z 1,000. The resolution of the first-class scan and second-class scan was 70 000 and 17 500, respectively. The collision energy for collision induced dissociation (NCE) was set to 20, 40 and 60 eV. The loop count was set to five and the dynamic exclusion duration to 10 s. […] Thermo Compound Discover software was used to identify expected and unknown metabolites, and we finally proposed (+)-13e metabolic pathways based on the deduced metabolites and relevant drug biotransformation knowledge.
# CYP3A4 = system: T1, CYP3A4; test: P450 phenotyping, chemical inhibitors in HLMs, CYP3A4; type: in vitro ADME, human; details: CYP3A4 probe substrate, 2 µM, specific inhibitor
# T1 construct: tissue Corning Co., Ltd (Shanghai, China); host or cells: human liver microsomes
# Protocol: (§2) According to the result of metabolite identification, three metabolites were selected as the targets for metabolic phenotyping. Seven CYP isozymes (CYP1A2, CYP2B6, CYP2C8, CYP2C9, CYP2C19, CYP2D6, and CYP3A4) were investigated using two kinds of methods: chemical inhibitors in human liver microsomes (HLMs) method (Experiment 1) and rhCYP isozymes method (Experiment 2).
# Experiment 1: HLMs were thawed on ice and diluted in100 mM sodium phosphate buffer (pH 7.4) containing 3 mM magnesium chloride. […] After 10 min of preincubation at 37°C, the reactions were initiated by adding 20 µL of NADPH (10 mM) and then incubated at 37 °C in a shaking water bath for 30 min. The samples were prepared in triplicates. The reactions were terminated by adding 600 µL of ice-cold acetonitrile and stored at −20°C until analysis. Control samples without NADPH and 0-time point samples were included. As positive controls, the probe substrates of each P450 isozyme under the same conditions were tested, and specific inhibitors was added. Next, the samples were centrifuged at 13,000 rpm for 10 min, the supernatants were determined by LC–MS/MS.
# rhCYP CYP3A4 = system: T2, rhCYP CYP3A4; test: P450 phenotyping, rhCYP isozymes, CYP3A4; type: in vitro ADME, human; details: rhCYP3A4 probe substrate, 0.4 µM
# T2 construct: purchased Corning Co., Ltd (Shanghai, China)
# Description: as §2
# Experiment 2: Each rhCYP isozyme was thawed and diluted as above method. As positive controls, the probe substrates of each P450 isozyme were tested under the same conditions. […] Vx ([…]) is the production rate of metabolites for each rhCYP isozyme.
# rat VMAT2 = target: T3, rat VMAT2 (Rattus norvegicus, UniProt Q01827); test: [3H]DA uptake assay in rat striatal synaptosomes; type: biochemical; details: [3H]DA uptake, rat striatal synaptosomes
# T3 construct: in vitro [^3H]DA uptake assay in rat striatal synaptosomes; from tissue; host or cells: rat striatal synaptosomes / vesicular suspension
# Protocol: [^3H]DA (dihydroxyphenylethyethylamine, 3,4-[ring-2,5,6-^3H]; specific activity, 28.0 Ci/mmol) was purchased from Perkin Elmer. […] After drying, the filter plate was sealed with unifilter-96 back sealing tape and added 50 μl of microscint-20 (Perkin Elmer), then sealed the top of the filter plate with TopSeal-A. The radioactivity was measured by a TopCount scintillation counter. GraphPad Prism 5.0 was used to analyze data.
# [2] = system: locomotor activity of rats; test: Dose-dependent effects on locomotor activity in rats; type: in vivo, rat; details: SD rats, single oral gavage 5.2 μmol/kg, 0.5-[…] after dosing
# Protocol: Before administration, animals were transported to the test room and allowed to acclimate for at least 1 h. Immediately after drug administration, rats were placed into activity chambers to assess their basal locomotor activity using the TopScan monitoring system. The total travel distance was recorded from 0.5 to 1.5 h after administration in intervals of 10 min.
# [3] = PK in dogs after single oral or intravenous dose; type: in vivo, dog; details: dog
# Protocol: as §1
# The system consisted of an Exion UHPLC system (Shimadzu, Japan) and a Triple Quad 4500 mass spectrometer (AB Sciex, United States) with an electrospray ionization source. Multiple reaction monitoring in the positive ionization mode was applied to measure analytes. Chromatographic separation was performed on a Acquity BEH C18 column (50 × 2.1 mm i. d., 1.7 μm, Waters, United States). The mobile phase was composed of 0.1% FA in water (A) and 0.1% FA in acetonitrile (B), and the flow rate was 0.4 ml/min. The elution conditions were the following linear gradient: 0–0.4 min: 90% A, 0.4–0.6 min: 60% A, 0.6–1.2 min: 10% A, 1.2–2.2 min: 10% A, 2.2–2.3 min: 90% A, 2.3–3.0 min: 90% A. The optimized parameters were as follows: the spray voltage 5.5 kV, source temperature 550 °C, pressure of source gas 1 and gas 2: 55psi, pressure of curtain gas: 30psi, and the DP, EP and CE voltage was 30,6 and 40 eV, respectively.
# [4] = set-up: method as in Skor et al., 2017; Stahl, 2018; details: Figure 1A ref Skor et al., 2017, Stahl, 2018, cited from earlier work; for Plasma Leval (DTBZ): share of HTBZ isomers after deutetrabenazine; for Plasma Leval (TBZ): share of HTBZ isomers after tetrabenazine
# VMAT2 = system: VMAT2; set-up: method as in Skor et al., 2017; Stahl, 2018; details: Figure 1A ref Skor et al., 2017; Stahl, 2018; cited from earlier work
# T3 sequence (Q01827 whole entry): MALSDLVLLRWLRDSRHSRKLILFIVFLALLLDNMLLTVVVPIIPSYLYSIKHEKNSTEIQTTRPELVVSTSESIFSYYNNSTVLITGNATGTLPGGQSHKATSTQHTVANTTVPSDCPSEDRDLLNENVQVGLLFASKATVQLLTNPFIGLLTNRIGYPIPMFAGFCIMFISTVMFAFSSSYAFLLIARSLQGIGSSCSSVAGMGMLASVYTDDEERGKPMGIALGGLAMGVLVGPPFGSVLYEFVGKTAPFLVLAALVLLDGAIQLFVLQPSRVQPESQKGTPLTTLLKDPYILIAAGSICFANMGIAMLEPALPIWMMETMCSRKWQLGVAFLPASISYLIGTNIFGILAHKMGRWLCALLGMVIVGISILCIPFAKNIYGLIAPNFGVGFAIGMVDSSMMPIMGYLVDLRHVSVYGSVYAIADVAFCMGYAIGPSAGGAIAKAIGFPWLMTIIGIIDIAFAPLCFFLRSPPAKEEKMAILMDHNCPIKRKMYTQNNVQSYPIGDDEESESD
smiles,measurement,setting,value
CC(C)(O)C[C@@H]1CN2CCc3cc(OCC(F)(F)F)c(OC4OC(C(=O)O)C(O)C(O)C4O)cc3[C@H]2C[C@H]1O (some centres unmarked) [M565],Relative abundance UV area % in dog plasma,[1],10.2%
COc1cc2c(cc1OCC(F)(F)F)CCN1C[C@@H](CC(C)(C)OC3OC(C(=O)O)C(O)C(O)C3O)[C@H](O)C[C@H]21 (some centres unmarked) [M579-1],Relative abundance UV area % in dog plasma,[1],3.43%
Cc1ncc2n1-c1ccc(Cl)cc1C(c1ccccc1F)=NC2 [Midazolam],%Inhibation in HLM,CYP3A4,84.7%
same,CL int in rhCYP,rhCYP CYP3A4,9.13 µL/min/pmol
"COc1cc2c(cc1OC)C1CC(=O)C(CC(C)C)CN1CC2 (centres unmarked) [TBZ, tetrabenazine, reference compound]",IC90,rat VMAT2,96.9 nM
"COc1cc2c(cc1OC)[C@H]1C[C@@H](OC(=O)[C@@H](N)C(C)C)[C@H](CC(C)C)CN1CC2 [VBZ, Valbenazine ditosylate, reference compound]",reduction rate (RR) of locomotion,[2],97.9%
same,"V, V/F",[3]; single intravenous dose 0.6 μmol/kg,2.8 ± 0.5 L/kg
same,clearance,"[3]; single intravenous dose 0.6 μmol/kg, read-out: Cl, Cl/F (converted)",6 mL/min/kg
same,"V, V/F",[3]; single oral dose 3 μmol/kg,3.5 ± 0.8 L/kg
same,bioavailability,"[3]; male, beagle, plasma, dogs, oral 3 μmol/kg vs intravenous 0.6 μmol/kg, read-out: absolute oral bioavailability",74.1%
same,CL/F,"[3]; male, beagle, plasma, 3 umol/kg, single oral dose 3 μmol/kg",8 mL/min/kg
COc1cc2c(cc1OC)[C@H]1C[C@H](O)[C@H](CC(C)C)CN1CC2 [[+]-β-HTBZ],Plasma Leval (DTBZ),[4],43.8%
same,Plasma Leval (TBZ),[4],37.2%
same,VMAT2 affinity,VMAT2,High
COc1cc2c(cc1OC)[C@@H]1C[C@H](O)[C@@H](CC(C)C)CN1CC2 [[-]-α-HTBZ],Plasma Leval (DTBZ),[4],48.3%
same,Plasma Leval (TBZ),[4],55.6%
same,VMAT2 affinity,VMAT2,Low
COc1cc2c(cc1OC)[C@@H]1C[C@@H](O)[C@@H](CC(C)C)CN1CC2 [[-]-β-HTBZ],Plasma Leval (DTBZ),[4],6.2%
same,Plasma Leval (TBZ),[4],5.4%
same,VMAT2 affinity,VMAT2,Low
